Measured values as given in US10111885B2, “Compositions and therapeutic methods for the treatment of complement-associated diseases” (Resverlogix Corp., priority 2015, dated 2018).

Experiments:
[1] = tested on: Complement Factor H (CFH); test: Multi-analyte profiling of plasma, ASSURE trial; assay type: in vivo, human; conditions: week 26 vs. baseline, N 20
Protocol: (§1) In this example, plasma samples from human subjects treated with placebo or RVX000222 was analyzed by Multi-Analyte Profiling (MAP) technology. The method can be used to determine the effect of compounds, including those in the present invention, on the levels of various analytes in plasma (Table 8).

[2] = tested on: Complement Factor H - Related Protein 1 (CFHR1); test: Multi-analyte profiling of plasma, ASSURE trial; assay type: in vivo, human; conditions: week 26 vs. baseline, N 17
Protocol: as §1

[3] = tested on: Complement C3 (C3); test: Multi-analyte profiling of plasma, ASSURE trial; assay type: in vivo, human; conditions: week 26 vs. baseline, N 20
Protocol: as §1

[4] = tested on: complement C3 protein; test: Secreted complement protein ELISA, HepG2 cells; assay type: cell-based, human; conditions: HepG2, 72 h, ± standard deviation
Protocol: In this example, protein secretion from cells grown in culture in the presence of compound of interest was analyzed by enzyme linked immunosorbent assay (ELISA). In some cases, cultured cells were treated with cytokines and the compound of interest to mimic an inflammatory state. The method can be used to determine the effect of compounds, including those in the present invention, on the secretion of specific proteins from cells grown in culture under basal and cytokine stimulated (i.e. inflammatory) conditions (Table 7, FIGS. 5 and 6).
Huh-7 cells (JCRB Cell Bank) were introduced to 24-well plates in 500 μL DMEM supplemented with 10% (v/v) FBS, 100 U/mL penicillin, 100 ug/mL streptomycin and 5 ug/mL plasmocin (all reagents from Gibco, except for the former, which comes from Invivogen) at 200 000 cells/well. After 24 h, cells were treated with the compound of interest and/or cytokines in DMEM with 10% FBS containing 0.1% DMSO for a total treatment time of 72 h. Fresh media containing compounds and/or cytokines was introduced in the final 24 h of the experiment. At harvest, media were collected, debris was removed by brief centrifugation, and ELISA assays for the indicated proteins were performed as per the manufacturer's protocol. To correct for differences in cell numbers, values obtained for complement proteins were normalized to values for transferrin. HepG2 cells (ATCC) were cultured in MEM containing 10% FBS, 1× non-essential amino acids, 1 mM sodium pyruvate, 2 mM L-glutamine, 100 U/mL penicillin, 100 ug/mL streptomycin and 5 ug/mL plasmocin. Serum amount was reduced to 0.5% when compounds were present. Treatment combinations and timing were as described above for Huh-7 cells. Primary human hepatocytes (CellzDirect/Life Technologies) were plated in collagen coated 96-well plates at 70 000 cells/well, then overlaid with Matrigel™ as recommended by the supplier. Cells were treated with compounds of interest with or without the indicated cytokines for a total of 72 h in the recommended media supplemented with 10% FBS and 0.1% DMSO (v/v). Media were collected for measurements of secreted proteins.
The ELISA kits for detection of complement C3, C4, C5 and C9 were obtained from AssayPro (St. Charles, Mo.), while the ELISA reagents for transferrin detection were from Bethyl Laboratories (Montgomery, Tex.). Data were collected on a Thermo Scientific Multiskan GO apparatus. Downregulation of expression of components of the complement cascade will result in reduced activity of the pathway and thus will constitute a positive result.

[5] = tested on: Complement C3; test: Plasma protein quantitation by LC-MRM/MS, ASSURE trial; assay type: in vivo, human; conditions: week 26 vs. baseline
Protocol: (§2) The method can be used to determine the effect of compounds, including those in the present invention, on the levels of various analytes found in plasma.
(§3) Using mass spectrometric methods, including multiple reaction monitoring (MRM) mass spectrometry (MRM-MS), each sample is analyzed for the presence and amount of 43 different plasma proteins. The changes in values for each protein analyte are calculated versus the baseline measure, and statistically significant (p<0.05) and trending (0.10>p>0.05) values are reported (Table 9). Downregulation of expression of components of the complement cascade will result in reduced activity of the pathway and thus will constitute a positive result.

[6] = tested on: Complement C4-B; test: as above; assay type: in vivo, human; conditions: week 26 vs. baseline
Protocol: as §2, §3

[7] = tested on: Complement factor B; test: as above; assay type: in vivo, human; conditions: week 26 vs. baseline, trending p 0.06
Protocol: as §2, §3

[8] = tested on: Complement component C8 beta chain; test: as above; assay type: in vivo, human; conditions: week 26 vs. baseline
Protocol: as §2, §3

[9] = tested on: Complement C5; test: as above; assay type: in vivo, human; conditions: week 26 vs. baseline
Protocol: as §2, §3

[10] = tested on: Complement factor I; test: as above; assay type: in vivo, human; conditions: week 26 vs. baseline
Protocol: as §2, §3

[11] = tested on: Complement component C8 alpha chain; test: as above; assay type: in vivo, human; conditions: week 26 vs. baseline
Protocol: as §2, §3

[12] = tested on: Complement factor H; test: as above; assay type: in vivo, human; conditions: week 26 vs. baseline
Protocol: as §2, §3

[13] = tested on: Complement C1r subcomponent; test: as above; assay type: in vivo, human; conditions: week 26 vs. baseline
Protocol: as §2, §3

[14] = tested on: Complement component C9; test: as above; assay type: in vivo, human; conditions: week 26 vs. baseline
Protocol: as §2, §3

## COc1cc(OC)c2c(=O)[nH]c(-c3cc(C)c(OCCO)c(C)c3)nc2c1 [RVX000222, 2-(4-(2-hydroxyethoxy)-3,5-dimethylphenyl)-5,7-dimethoxyquinazolin-4(3H)-one]
[1]
  Complement Factor H (CFH) Change from baseline: -75.35 µg/mL
  Complement Factor H (CFH) Percent Change from baseline: −11.45%
[2]
  Complement Factor H - Related Protein 1 (CFHR1) Change from baseline: -291.76 µg/mL
  Complement Factor H - Related Protein 1 (CFHR1) Percent Change from baseline: −10.75%
[3]
  Complement C3 (C3) Change from baseline: -0.1 mg/mL
  Complement C3 (C3) Percent Change from baseline: −9.28%
[4]; 30 uM
  C3 secretion, percent maximum reduction in protein levels: 34 ± 5%
[5]
  Complement C3 Change from baseline: −34,105 ng/mL
  Complement C3 Percent Change from baseline: −3.6%
[6]
  Complement C4-B Change from baseline: −7,492 ng/mL
  Complement C4-B Percent Change from baseline: −4.3%
[7]
  Complement factor B Change from baseline: −4,259 ng/mL
  Complement factor B Percent Change from baseline: −4.2%
[8]
  Complement component C8 beta chain Change from baseline: -341 ng/mL
  Complement component C8 beta chain Percent Change from baseline: −3.9%
[9]
  Complement C5 Change from baseline: −2,228 ng/mL
  Complement C5 Percent Change from baseline: −5.3%
[10]
  Complement factor I Change from baseline: −1,205 ng/mL
  Complement factor I Percent Change from baseline: −5.2%
[11]
  Complement component C8 alpha chain Change from baseline: -120 ng/mL
  Complement component C8 alpha chain Percent Change from baseline: −8.6%
[12]
  Complement factor H Change from baseline: −8,710 ng/mL
  Complement factor H Percent Change from baseline: −4.2%
[13]
  Complement C1r subcomponent Change from baseline: -571 ng/mL
  Complement C1r subcomponent Percent Change from baseline: −3.6%
[14]
  Complement component C9 Change from baseline: −5,034 ng/mL
  Complement component C9 Percent Change from baseline: −13.8%

## Cc1sc2c(c1C)C(c1ccc(Cl)cc1)=N[C@@H](CC(=O)OC(C)(C)C)c1nnc(C)n1-2 [JQ1, (S)-tert-butyl 2-(4-(4-chlorophenyl)-2,3,9-trimethyl-6H-thieno[3,2-f][1,2,4]triazolo[4,3-a][1,4]diazepin-6-yl)acetate, reference compound]
[4]; 0.75 uM
  C3 secretion, percent maximum reduction in protein levels: 54 ± 5%
